Consider two molecules from publication PMC4286194 (Biochemical Journal, 2015).

Test [1] concerns Bone-marrow-derived macrophages. The test can be described thus: IL-10 secretion (BIOPLEX) in LPS-stimulated macrophages. The class given is cell-based, mouse. Particulars: for EC50: Mus musculus, Macrophage, read-out: EC50 for elevation of IL-10 secretion; for IL-10 production at optimal dose: dasatinib 300 nM, bosutinib 3 μM, HG-9-91-01 500 nM, LPS-stimulated. As for the experimental part:
The concentration of TNFα, IL-6, IL-10 and IL-12p40 in cell-free culture supernatants were measured using the Bio-Plex Pro Assay system (Bio-Rad).

For test [2] the test system is unchanged. The test can be described thus: CREB-dependent gene transcription (qPCR). The class given is cell-based, mouse. Particulars: 3 μM bosutinib or 0.3 μM dasatinib; LPS or Pam3CSK4. How it is done: mRNA was extracted from cells using the MicroElute Total RNA kit following the manufacturers’ instructions (Omega Bio-Tek). cDNA was generated from 0.5 μg of total RNA using the iScript cDNA synthesis kit and quantified by quantitative real-time PCR (qPCR) using the SsoFast EvaGreen Supermix on a CFX384 real-time system (Bio-Rad Laboratories). The relative expression of each gene was calculated from CT values using the Pfaffl method and was normalized against the mRNA levels of housekeeping genes including 18S RNA and GAPDH. Results are reported relative to untreated control cells, which were set to 1.

For test [3] the test system is unchanged. Nature of the test: TLR signalling immunoblots (MAPKs, MSK1/2, CREB, IKKs, TBK1). Format: cell-based, mouse. The following applies: for Kinetics of activation of MAPKs including ERK1/2 and p38α/β: 3 μM bosutinib or 0.3 μM dasatinib, LPS or Pam3CSK4; for TLR-stimulated phosphorylation of ERK1/2, JNK1/2, p38α/β MAPKs, MSK1/2, IKKα/β, TBK1 and their direct substrates: 3 μM bosutinib, 0.3 μM dasatinib or 0.5 μM HG-9-91-01.
Experimental: RAW264.7 cells were cultured in DMEM containing 10% FBS, 2 mM glutamine and penicillin and streptomycin. […] Cells were treated for 1 h with or without inhibitors and then stimulated for up to 24 h with either 1 μg/ml Pam3CSK4 or 100 ng/ml LPS.
Cells were extracted in lysis buffer [50 mM Tris/HCl, pH 7.4, 1 mM EDTA, 1 mM EGTA, 50 mM NaF, 5 mM sodium pyrophosphate, 10 mM sodium β-glycerol 1-phosphate, 1 mM DTT, 1 mM sodium orthovanadate, 0.27 M sucrose, 1% (v/v) Triton X-100, 1 μg/ml aprotinin, 1 μg/ml leupeptin and 1 mM PMSF]. Cell extracts were clarified by centrifugation and protein concentrations were determined using the Bradford assay. To immunoprecipitate endogenous CRTC3, 1 mg of cell extract was incubated with 5 μg of anti-CRTC3 [13] covalently cross-linked on to Protein G–Sepharose. Immune complexes were washed three times with lysis buffer, eluted in 1% SDS and separated by SDS/PAGE. To detect proteins in cell lysates, 20 μg of protein extract was separated by SDS/PAGE. After transfer to PVDF membranes, proteins were detected by immunoblotting and visualized by treating the blots with ECL (GE Healthcare) followed by autoradiography.

A further test addresses T1, BRSK1 (Homo sapiens, UniProt Q8TDC3).
T1 sequence (Q8TDC3 1-778): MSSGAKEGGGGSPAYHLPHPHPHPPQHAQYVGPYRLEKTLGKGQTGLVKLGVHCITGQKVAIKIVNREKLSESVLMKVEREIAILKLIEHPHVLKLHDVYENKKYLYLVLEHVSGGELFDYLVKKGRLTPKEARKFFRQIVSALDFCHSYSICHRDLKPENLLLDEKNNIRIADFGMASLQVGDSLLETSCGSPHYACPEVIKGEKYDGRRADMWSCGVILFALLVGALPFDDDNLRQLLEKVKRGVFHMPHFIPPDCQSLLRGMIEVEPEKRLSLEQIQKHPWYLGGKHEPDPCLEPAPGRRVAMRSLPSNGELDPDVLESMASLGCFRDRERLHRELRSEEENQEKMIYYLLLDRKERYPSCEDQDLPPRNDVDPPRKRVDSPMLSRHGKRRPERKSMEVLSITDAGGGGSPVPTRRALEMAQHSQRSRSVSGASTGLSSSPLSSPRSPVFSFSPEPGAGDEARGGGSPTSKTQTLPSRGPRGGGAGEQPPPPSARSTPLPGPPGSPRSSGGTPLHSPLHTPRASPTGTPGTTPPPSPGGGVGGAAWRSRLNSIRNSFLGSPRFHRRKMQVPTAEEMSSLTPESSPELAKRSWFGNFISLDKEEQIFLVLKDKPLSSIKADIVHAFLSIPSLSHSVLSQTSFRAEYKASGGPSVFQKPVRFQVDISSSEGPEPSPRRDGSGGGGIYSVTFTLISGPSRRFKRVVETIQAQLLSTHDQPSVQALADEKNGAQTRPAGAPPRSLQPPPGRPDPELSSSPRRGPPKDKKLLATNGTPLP
Nature of the test: Kinase profiling. The class given is biochemical.

The target in the next test is CK1 gamma 2 (Homo sapiens, UniProt P78368). Nature of the test: Kinase profiling. Format: biochemical.
A further test addresses T2, DYRK3 (Homo sapiens, UniProt O43781).
T2 sequence (O43781 1-588): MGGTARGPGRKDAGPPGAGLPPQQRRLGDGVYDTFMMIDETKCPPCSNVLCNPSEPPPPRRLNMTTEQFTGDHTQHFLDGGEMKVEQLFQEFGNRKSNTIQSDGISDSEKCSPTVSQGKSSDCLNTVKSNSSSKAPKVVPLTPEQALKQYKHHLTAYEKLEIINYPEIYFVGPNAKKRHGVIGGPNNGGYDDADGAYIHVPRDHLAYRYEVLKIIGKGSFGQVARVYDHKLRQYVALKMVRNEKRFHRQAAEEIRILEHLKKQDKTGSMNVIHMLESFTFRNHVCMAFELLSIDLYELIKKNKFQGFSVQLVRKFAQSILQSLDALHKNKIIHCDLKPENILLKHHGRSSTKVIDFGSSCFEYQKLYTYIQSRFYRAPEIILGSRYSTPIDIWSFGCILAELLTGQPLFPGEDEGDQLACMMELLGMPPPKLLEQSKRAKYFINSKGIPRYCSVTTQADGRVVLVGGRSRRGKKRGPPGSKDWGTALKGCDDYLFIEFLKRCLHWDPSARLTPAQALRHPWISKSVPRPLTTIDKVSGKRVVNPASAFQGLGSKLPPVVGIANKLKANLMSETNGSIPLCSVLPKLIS
Nature of the test: Kinase profiling. The class given is biochemical.

In the next test the target is ERK5 (Homo sapiens, UniProt Q13164). Nature of the test: Kinase profiling. Format: biochemical.
The target in a further test is HIPK1 (Homo sapiens, UniProt Q86Z02). Nature of the test: Kinase profiling. Format: biochemical.
The target of the next test is MAP4K5 (Homo sapiens, UniProt Q9Y4K4). The test can be described thus: Kinase profiling. The class given is biochemical.
For a further test, the target named is MINK1 (Homo sapiens, UniProt Q8N4C8). The test can be described thus: Kinase profiling. The class given is biochemical.
The next test addresses MKK2 (Homo sapiens, UniProt P36507). Nature of the test: Kinase profiling. Format: biochemical.
The next test concerns the target PDGFRA (Homo sapiens, UniProt P16234). Nature of the test: Kinase profiling. The class given is biochemical.

Sequence of HIPK1 (Q86Z02 whole entry): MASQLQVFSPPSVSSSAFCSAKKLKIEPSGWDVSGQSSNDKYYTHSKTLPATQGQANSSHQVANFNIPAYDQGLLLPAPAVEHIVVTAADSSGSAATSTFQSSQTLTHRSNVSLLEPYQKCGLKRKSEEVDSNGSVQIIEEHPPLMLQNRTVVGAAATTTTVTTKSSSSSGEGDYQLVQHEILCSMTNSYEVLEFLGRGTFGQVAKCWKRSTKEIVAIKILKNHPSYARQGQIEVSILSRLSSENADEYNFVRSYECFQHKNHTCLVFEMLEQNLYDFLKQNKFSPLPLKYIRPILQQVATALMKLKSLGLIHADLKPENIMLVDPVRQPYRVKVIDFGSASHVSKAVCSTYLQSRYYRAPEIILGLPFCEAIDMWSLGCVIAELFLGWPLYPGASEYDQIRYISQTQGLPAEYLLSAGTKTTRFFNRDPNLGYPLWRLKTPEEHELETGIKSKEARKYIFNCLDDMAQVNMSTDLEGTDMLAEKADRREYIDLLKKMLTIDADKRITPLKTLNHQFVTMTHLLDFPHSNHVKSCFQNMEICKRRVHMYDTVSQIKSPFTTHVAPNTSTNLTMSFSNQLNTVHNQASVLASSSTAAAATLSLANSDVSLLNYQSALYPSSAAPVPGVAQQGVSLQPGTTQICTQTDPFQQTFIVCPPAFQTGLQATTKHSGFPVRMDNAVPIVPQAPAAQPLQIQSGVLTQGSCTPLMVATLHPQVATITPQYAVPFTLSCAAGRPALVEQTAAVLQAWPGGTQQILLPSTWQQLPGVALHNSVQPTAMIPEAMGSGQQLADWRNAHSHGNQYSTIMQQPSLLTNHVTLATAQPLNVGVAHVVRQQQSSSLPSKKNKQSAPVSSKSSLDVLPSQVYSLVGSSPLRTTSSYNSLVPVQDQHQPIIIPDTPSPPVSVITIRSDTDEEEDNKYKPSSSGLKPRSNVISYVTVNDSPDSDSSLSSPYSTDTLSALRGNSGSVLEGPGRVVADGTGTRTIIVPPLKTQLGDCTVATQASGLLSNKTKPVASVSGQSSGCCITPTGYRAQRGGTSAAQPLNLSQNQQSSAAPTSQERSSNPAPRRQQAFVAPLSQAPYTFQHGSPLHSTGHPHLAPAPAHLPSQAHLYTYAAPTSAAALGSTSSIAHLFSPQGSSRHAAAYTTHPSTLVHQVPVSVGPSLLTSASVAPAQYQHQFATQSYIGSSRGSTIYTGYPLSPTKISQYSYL
Sequence of MINK1 (Q8N4C8 whole entry): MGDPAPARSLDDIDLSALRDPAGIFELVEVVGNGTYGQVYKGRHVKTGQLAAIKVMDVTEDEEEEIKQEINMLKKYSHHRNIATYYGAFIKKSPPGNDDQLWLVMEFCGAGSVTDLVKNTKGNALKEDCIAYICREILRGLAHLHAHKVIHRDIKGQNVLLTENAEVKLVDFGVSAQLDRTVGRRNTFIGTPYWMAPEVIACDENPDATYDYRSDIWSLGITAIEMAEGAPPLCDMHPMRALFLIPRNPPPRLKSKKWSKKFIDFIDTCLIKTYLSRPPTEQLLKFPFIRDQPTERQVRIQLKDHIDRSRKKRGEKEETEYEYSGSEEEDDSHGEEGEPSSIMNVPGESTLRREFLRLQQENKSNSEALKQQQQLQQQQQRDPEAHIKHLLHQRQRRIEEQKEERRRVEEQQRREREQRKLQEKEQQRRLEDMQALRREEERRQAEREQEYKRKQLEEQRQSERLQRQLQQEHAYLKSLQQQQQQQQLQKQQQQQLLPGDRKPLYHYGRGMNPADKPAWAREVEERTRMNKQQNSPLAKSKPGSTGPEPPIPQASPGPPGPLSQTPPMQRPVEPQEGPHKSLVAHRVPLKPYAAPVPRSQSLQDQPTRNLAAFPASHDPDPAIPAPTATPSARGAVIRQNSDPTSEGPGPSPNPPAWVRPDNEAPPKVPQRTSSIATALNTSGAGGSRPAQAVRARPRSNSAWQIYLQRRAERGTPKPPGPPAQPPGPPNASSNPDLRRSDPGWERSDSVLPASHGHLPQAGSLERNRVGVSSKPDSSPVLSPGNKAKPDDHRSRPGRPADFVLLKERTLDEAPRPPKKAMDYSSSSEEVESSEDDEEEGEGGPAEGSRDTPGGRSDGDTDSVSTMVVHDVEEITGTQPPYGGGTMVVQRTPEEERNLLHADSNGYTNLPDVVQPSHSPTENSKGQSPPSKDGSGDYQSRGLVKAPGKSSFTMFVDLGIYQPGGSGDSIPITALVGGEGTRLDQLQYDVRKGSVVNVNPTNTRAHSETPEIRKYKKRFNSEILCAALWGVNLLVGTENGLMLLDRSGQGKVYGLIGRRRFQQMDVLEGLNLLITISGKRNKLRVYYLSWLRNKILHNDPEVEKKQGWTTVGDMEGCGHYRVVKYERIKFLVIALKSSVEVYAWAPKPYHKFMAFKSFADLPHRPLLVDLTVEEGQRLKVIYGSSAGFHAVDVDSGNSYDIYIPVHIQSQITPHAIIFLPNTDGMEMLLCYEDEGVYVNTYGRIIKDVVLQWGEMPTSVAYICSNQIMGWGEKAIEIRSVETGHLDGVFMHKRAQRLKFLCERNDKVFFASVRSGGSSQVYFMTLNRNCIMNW
Sequence of MAP4K5 (Q9Y4K4 whole entry): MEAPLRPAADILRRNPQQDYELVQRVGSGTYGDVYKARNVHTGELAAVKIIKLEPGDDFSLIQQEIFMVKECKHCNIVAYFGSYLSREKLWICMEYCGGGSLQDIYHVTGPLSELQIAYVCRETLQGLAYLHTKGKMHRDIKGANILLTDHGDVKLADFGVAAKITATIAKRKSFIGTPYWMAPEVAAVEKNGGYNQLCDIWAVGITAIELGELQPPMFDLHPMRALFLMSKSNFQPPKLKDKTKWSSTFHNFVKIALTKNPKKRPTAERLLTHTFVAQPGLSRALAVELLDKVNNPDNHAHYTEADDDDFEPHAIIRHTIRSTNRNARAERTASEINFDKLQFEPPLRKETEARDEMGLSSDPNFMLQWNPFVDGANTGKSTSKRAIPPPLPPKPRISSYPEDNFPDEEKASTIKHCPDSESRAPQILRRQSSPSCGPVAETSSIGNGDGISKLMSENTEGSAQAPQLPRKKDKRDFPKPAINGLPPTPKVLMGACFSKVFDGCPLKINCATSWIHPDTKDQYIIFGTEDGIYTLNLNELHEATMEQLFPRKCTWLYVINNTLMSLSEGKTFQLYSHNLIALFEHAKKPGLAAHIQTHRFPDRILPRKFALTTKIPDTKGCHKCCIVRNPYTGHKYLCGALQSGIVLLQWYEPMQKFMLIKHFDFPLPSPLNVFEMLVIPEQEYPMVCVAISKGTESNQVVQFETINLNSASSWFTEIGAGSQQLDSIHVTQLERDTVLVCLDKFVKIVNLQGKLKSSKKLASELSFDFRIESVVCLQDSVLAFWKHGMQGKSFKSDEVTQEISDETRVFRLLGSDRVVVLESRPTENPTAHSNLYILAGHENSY
Sequence of MKK2 (P36507 whole entry): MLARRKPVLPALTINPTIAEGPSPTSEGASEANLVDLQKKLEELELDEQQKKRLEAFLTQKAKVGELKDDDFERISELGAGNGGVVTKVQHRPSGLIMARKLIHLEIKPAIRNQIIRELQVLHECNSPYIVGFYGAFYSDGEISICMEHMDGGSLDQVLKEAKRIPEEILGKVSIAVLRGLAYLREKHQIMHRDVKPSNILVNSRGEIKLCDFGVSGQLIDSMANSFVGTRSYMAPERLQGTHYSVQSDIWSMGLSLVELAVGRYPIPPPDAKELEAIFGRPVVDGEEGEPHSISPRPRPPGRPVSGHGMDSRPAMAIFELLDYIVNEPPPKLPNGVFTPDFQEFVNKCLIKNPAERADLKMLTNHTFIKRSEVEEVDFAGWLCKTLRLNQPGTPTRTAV
Sequence of CK1 gamma 2 (P78368 whole entry): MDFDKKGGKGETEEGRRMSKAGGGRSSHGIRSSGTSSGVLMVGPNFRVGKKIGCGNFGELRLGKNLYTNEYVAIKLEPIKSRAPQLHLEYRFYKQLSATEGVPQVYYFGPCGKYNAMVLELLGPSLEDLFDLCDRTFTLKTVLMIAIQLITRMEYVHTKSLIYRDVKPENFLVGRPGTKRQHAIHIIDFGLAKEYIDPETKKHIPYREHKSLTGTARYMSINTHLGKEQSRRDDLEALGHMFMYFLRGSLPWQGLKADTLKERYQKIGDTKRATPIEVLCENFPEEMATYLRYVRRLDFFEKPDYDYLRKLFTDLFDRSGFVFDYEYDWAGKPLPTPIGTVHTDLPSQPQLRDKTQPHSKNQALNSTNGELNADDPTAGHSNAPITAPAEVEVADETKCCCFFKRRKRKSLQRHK
Sequence of ERK5 (Q13164 whole entry): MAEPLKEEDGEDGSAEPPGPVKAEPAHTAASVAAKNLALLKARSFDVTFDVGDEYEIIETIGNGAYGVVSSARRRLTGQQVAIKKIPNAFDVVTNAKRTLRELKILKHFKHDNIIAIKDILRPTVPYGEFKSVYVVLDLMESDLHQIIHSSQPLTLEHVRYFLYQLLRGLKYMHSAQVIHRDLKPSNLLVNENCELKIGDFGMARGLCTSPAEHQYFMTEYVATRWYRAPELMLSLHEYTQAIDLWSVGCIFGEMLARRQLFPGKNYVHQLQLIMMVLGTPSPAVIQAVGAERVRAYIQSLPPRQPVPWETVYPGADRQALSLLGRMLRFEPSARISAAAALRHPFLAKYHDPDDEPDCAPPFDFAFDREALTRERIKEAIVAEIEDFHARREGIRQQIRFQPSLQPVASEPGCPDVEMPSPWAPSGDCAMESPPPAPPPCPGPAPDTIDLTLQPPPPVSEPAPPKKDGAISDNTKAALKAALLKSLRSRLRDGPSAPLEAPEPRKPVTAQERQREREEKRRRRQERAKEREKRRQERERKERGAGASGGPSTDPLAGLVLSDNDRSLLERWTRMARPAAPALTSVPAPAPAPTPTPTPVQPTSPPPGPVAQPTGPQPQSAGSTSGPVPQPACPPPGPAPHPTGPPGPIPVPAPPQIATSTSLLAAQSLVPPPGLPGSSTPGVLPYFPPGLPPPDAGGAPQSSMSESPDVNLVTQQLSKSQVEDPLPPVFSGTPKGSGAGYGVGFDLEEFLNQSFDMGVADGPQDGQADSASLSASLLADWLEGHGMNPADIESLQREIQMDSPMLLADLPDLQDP

Regarding `COc1cc(Nc2c(C#N)cnc3cc(OCCCN4CCN(C)CC4)c(OC)cc23)c(Cl)cc1Cl` [Bosutinib, bosutinib], the EC50 in test [1] was determined as 510 nM. Moreover, in test [1], the “IL-10 production at optimal dose” value is recorded as “induced IL-10 production to similar levels as HG-9-91-01”. For the same molecule, the “Transcription of CREB-dependent genes IL-10, Nurr77 and c-FOS” value in test [2] is listed as “elevated the transcription”. Besides, in test [3], the “Kinetics of activation of MAPKs including ERK1/2 and p38α/β” value was “no effect”. For the same molecule, the “TLR-stimulated phosphorylation of ERK1/2, JNK1/2, p38α/β MAPKs, MSK1/2, IKKα/β, TBK1 and their direct substrates” value in [3] is “occurred normally”. The remaining activity at 0.1 µM at BRSK1 came out at 101 ± 1%; at CK1 gamma 2 it was 117 ± 1%; on DYRK3, 85 ± 11%; on ERK5, 74 ± 6%; at HIPK1 it was 95%; at MAP4K5 it was 0%. Also, the remaining activity at 0.1 µM at MINK1 was found to be 5 ± 1%; at MKK2 it was 60 ± 3%; at PDGFRA, 96 ± 1%. The remaining activity at 1 µM on BRSK1 was 112 ± 5%; at CK1 gamma 2 it was 108 ± 4%; at DYRK3 it was 90 ± 16%; on ERK5, 67 ± 10%; at HIPK1, 57%; on MAP4K5 (1 µM) it was 1%. In addition, the results for the remaining activity at 1 µM at MINK1, at MKK2 and at PDGFRA (1 µM) were 1%, 21 ± 4% and 79%, respectively.
Regarding `Cc1nc(Nc2ncc(C(=O)Nc3c(C)cccc3Cl)s2)cc(N2CCN(CCO)CC2)n1` [Dasatinib], the EC50 in test [1] was determined as 110 nM. In addition, in test [1], the “IL-10 production at optimal dose” value is “induced IL-10 production to similar levels as HG-9-91-01”. Also, the “Transcription of CREB-dependent genes IL-10, Nurr77 and c-FOS” value in [2] is recorded as “elevated the transcription”. Also, in test [3], the “Kinetics of activation of MAPKs including ERK1/2 and p38α/β” value is “no effect”. In [3], the “TLR-stimulated phosphorylation of ERK1/2, JNK1/2, p38α/β MAPKs, MSK1/2, IKKα/β, TBK1 and their direct substrates” value was “occurred normally”. Besides, the remaining activity at 0.1 µM at BRSK1 came to 126%; on CK1 gamma 2 it was 115%; on DYRK3, 98 ± 7%; on ERK5, 87 ± 2%; at HIPK1 it was 105 ± 4%; on MAP4K5, 22 ± 1%. For the same molecule, the remaining activity at 0.1 µM on MINK1 was 90 ± 4%; at MKK2 it was 113 ± 11%; at PDGFRA, 6 ± 1%. The remaining activity at 1 µM at BRSK1 worked out at 123 ± 1%; on CK1 gamma 2, 113 ± 12%; at DYRK3 it was 104 ± 9%; at ERK5, 91 ± 4%; at HIPK1, 122 ± 6%; on MINK1, 51 ± 1%. Further, the remaining activity at 1 µM on MKK2 was 91%.
